The assay relates to isolated pulmonary vessel. The assay can be described thus: Relaxant activity on blood vessels isolated from guinea pigs (pulmonary artery). The settings on record: Cavia porcellus; guinea pig pulmonary artery, K+ depolarised, Ca2+ contraction; read-out: IC50 (relaxation of 50%). The protocol: Determination of the relaxant activity of the compounds according to the invention on blood vessels isolated from guinea pigs.
The pulmonary artery of male guinea pigs (350-500 g) is isolated and cut into spiral tracts (1 mm wide, 15 mm long). […] After having removed the calcium from the tissues (Tyrode without calcium and 0.2 mM EDTA), the tracts are depolarised in the presence of a concentrated solution of K^+ ions (40 mM), which is produced by replacing the NaCl by equimolar amounts of KCl, and a contraction of long duration is then induced by Ca^2+ ions (0.5 mM).
The compounds studied are then introduced into the organ cell in increasing concentrations.
Each compound is tested on at least four vessel spiral tracts.

Experimental findings from patent publication US5591758A, “Organic nitrates, processes for their preparation and their use in the treatment of cardiovascular diseases” (Laboratoires Hoechst, SA, priority 1991, dated 1997) are described below.

Counter-ions that a name gives are not always drawn. A value given as a limit tells only on which side of the number the result lay.

One may read the IC50 as the midpoint of a concentration-inhibition curve. Turning to `O=C(CNC(=O)[C@@H]1CSCN1)N[C@H]1CO[C@H]2[C@@H]1OC[C@@H]2O[N+](=O)[O-]` [Compound 46, 5-[[2-[[(4-L-Thiazolidinyl)carbonyl]amino]-1oxoethyl]amino]-5-deoxy-2-O-nitro-1,4:3,6-dianhydro-L-iditol monohydrochloride], the IC50 is 38 µM. Then `O=[N+]([O-])O[C@@H]1CO[C@H]2[C@@H]1OC[C@@H]2O` [IS-5-MN, isosorbide 5-mononitrate, reference compound], with more than 100 µM.
